According to patent US12370263B2, “Cyclic dinucleotide derivative based antibody-drug conjugates” (DAIICHI SANKYO COMPANY, LIMITED, priority 2018, dated 2025):

Key:
[1] = molecular target: T1, HisAviTEV-hSTING (139-342) human REF-mutated protein (Homo sapiens, UniProt Q86WV6); assay: Protein thermal shift assay, STING C-terminal binding domain protein; conditions: test compound final concentration 0.5 mM
T1 construct: made in house; host or cells: E. coli Rosetta 2 (DE3), co-expressed with BirA (1-321)

[2] = molecular target: T2, HisAviTEV-hSTING (139-342) human wild-type protein (Homo sapiens, UniProt Q86WV6, H232R); assay: as above; conditions: test compound final concentration 0.5 mM
T2 construct: made in house; host or cells: E. coli Rosetta 2 (DE3), co-expressed with BirA (1-321)

Human STING = Human STING (Homo sapiens, UniProt Q86WV6, G230A/H232R/R293Q/R71H); assay: Reporter gene assay, human STING agonist activity, THP1-Dual cells (HAQ-mutated), IRF pathway; conditions: THP1-Dual cells IRF EC50, THP1-Dual cells (HAQ-mutated), 24 hours; 100% = maximum count with ML-RR-CDA·2Na+
Protocol: Human STING agonist activity was evaluated by using THP1-Dual™ cells (HAQ-mutated) (InvivoGen, CA, US), with which the activation of the pathway of interferon regulatory factor-3 (IRF3), which is present in the downstream of the STING pathway, can be confirmed.
Assay was performed as follows. First, a test compound diluted with PBS was aliquoted into a transparent 96-well plate (Corning Incorporated, NY, US) at 20 μL/well. Subsequently, reporter cells suspended in assay buffer (an RPMI1640 medium or DMEM medium containing 10% bovine serum albumin) were added at 180 μL/well (1×10^5 cells/well) to initiate stimulation. After the cells were cultured in an environment at 37° C. and 5% CO2 for 24 hours, the resultant was centrifuged to collect the supernatant. To a white 384-well plate, 6 μL of the supernatant collected was added, and 15 μL of QUANTI-Luc (InvivoGen) solution was added thereto. After the resultant was well mixed together, emission was measured by using a plate reader (PerkinElmer, Inc., MA, US).

[3] = molecular target: T3, HisAviTEV-hSTING (139-342) human AQ-mutated protein (Homo sapiens, UniProt Q86WV6, G230A/H232R/R293Q); assay: Protein thermal shift assay, STING C-terminal binding domain protein; conditions: test compound final concentration 0.5 mM
T3 construct: made in house; host or cells: E. coli Rosetta 2 (DE3), co-expressed with BirA (1-321)

[4] = molecular target: T4, His-Avi-TEV-mSTING (138-341) mouse wild-type protein (Mus musculus, UniProt Q3TBT3); assay: as above; conditions: test compound final concentration 0.5 mM
T4 construct: made in house; host or cells: E. coli Rosetta 2 (DE3), co-expressed with BirA (1-321)
Protocol: Each of these expression strains was added to a TB medium containing 100 μg/mL ampicillin, 50 μg/mL streptomycin, and 30 μg/mL kanamycin, cultured at 37° C., then exposed to 100 μM IPTG for inducible expression, and further cultured at 16° C.
The culture solution was centrifuged, and the resulting bacterial cells were suspended in 50 mM HEPES pH 8.0, 500 mM NaCl, 20 mM imidazole, 1 mM DTT, 5% (w/v) glycerol, Complete EDTA free, and then subjected to freeze-thawing. After addition of Lysozyme and DNase I, proteins were extracted by ultrasonic disintegration, and centrifugation was performed and the resulting supernatant was collected. The supernatant obtained was purified by using an AKTA express chromatography system (GE Healthcare, IL, US) with a HisTrap FF column (GE Healthcare), and eluted with buffer (20 mM HEPES pH 7.5, 120 mM NaCl, 20% Glycerol, 0.8 mM DTT) through a Superdex 200 16/60 column (GE Healthcare). […] The protein concentrations were measured by using a NanoDrop2000 (Thermo Fisher Scientific, MA, US), and the proteins were cryopreserved at −80° C. until use.
The binding ability of each compound to the STING C-terminal binding domain proteins was evaluated by protein thermal shift assay, which uses the elevation of thermal denaturation temperature of protein as an index.
Specifically, 3 μL of a test compound (final concentration: 0.5 mM), 3 μL of SYPRO Orange Protein Gel Stain (Thermo Fisher Scientific) (final concentration: 20-fold), and 6 μL of a STING protein were mixed with use of assay buffer (20 mM Tris-HCl pH 7.5, 120 mM NaCl) in a 384-well real-time PCR plate, and mixed together with a plate shaker. With a real-time PCR system (Thermo Fisher Scientific), the temperature was increased from 25° C. to 95° C. at a rate of 0.03° C./sec, and the thermal denaturation temperature of the protein was measured by using fluorescence emitted from SYPRO Orange as an index. From the measurement acquired, Tm (the midpoint of the unfolding transition) (° C.) was determined as a temperature at which the increase rate of fluorescence intensity was maximized by using the analysis software Protein Thermal Shift software (Thermo Fisher Scientific). The Tm value for a well with no compound was subtracted from the Tm value for each test compound to calculate the Tm shift caused by the compound as ΔTm (° C.).

T3 sequence (Q86WV6 with tags, fused parts or gaps G230A/H232R/R293Q): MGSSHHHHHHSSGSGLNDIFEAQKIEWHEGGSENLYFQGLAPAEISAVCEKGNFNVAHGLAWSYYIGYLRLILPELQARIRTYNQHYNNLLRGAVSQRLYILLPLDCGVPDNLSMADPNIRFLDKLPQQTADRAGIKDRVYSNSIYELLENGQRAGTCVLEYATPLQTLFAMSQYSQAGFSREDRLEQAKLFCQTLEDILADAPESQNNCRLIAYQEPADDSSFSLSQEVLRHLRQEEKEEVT
Sequence of Human STING (Q86WV6 whole entry R71H/G230A/H232R/R293Q, the tested form may be a part): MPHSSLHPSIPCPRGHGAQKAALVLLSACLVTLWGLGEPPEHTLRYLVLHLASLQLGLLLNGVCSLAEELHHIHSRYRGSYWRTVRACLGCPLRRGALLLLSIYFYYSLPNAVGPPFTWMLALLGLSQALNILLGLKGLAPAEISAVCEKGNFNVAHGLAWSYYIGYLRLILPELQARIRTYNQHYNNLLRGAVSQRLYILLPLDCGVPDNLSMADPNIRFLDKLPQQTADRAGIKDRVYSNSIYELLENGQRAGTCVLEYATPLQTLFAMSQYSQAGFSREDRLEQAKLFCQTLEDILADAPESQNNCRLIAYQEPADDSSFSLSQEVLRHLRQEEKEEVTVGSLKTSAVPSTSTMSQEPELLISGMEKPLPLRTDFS
T4 sequence (Q3TBT3 with tags, fused parts or gaps limits assumed): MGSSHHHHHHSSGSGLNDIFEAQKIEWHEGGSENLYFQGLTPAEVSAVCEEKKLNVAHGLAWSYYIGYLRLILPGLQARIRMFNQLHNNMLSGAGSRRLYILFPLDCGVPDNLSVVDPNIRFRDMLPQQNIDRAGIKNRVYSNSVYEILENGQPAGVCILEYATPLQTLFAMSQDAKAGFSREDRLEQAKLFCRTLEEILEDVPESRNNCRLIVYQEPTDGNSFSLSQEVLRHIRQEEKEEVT
T1 sequence (Q86WV6 with tags, fused parts or gaps, change not shown): as the sequence (Q86WV6 with tags, fused parts or gaps G230A/H232R/R293Q) above, with A131G, R133H, Q194R counted along it
T2 sequence (Q86WV6 with tags, fused parts or gaps H232R): as the sequence (Q86WV6 with tags, fused parts or gaps G230A/H232R/R293Q) above, with A131G, Q194R counted along it

Row | SMILES | ΔTm at 500 µM [1] | ΔTm at 500 µM [2] | EC50 (Human STING) | ΔTm at 500 µM [3] | ΔTm at 500 µM [4] | ΔTm Hu-REF [1] | ΔTm Hu-WT [2] | ΔTm Hu-AQ [3] | ΔTm Ms-WT [4]
1 | O=c1c2ncn([C@@H]3O[C@@H]4COP(=O)(S)O[C@H]5[C@@H](F)[C@H](n6cc7c8c(ncnc86)SCCC7)O[C@@H]5COP(=O)(S)O[C@@H]3[C@@H]4O)c2ncn1CCO (single isomer, unassigned) [48a] | 9.3 °C | 15.9 °C | 35 nM | 22.2 °C | 16 °C |  |  |  | 
2 | O=C(CO)NCCn1cnc2c(ncn2[C@@H]2O[C@@H]3COP(=O)(S)O[C@H]4[C@@H](O)[C@H](n5cc6c7c(ncnc75)NCCC6)O[C@@H]4COP(=O)(S)O[C@@H]2[C@@H]3O)c1=O (single isomer, unassigned) [7b] |  |  | 6100 nM |  |  | 2.8 °C | 7.2 °C | 9.5 °C | 13.2 °C
3 | O=c1[nH]cnc2c1ncn2[C@@H]1O[C@@H]2COP(=O)(S)O[C@H]3[C@@H](O)[C@H](n4cc5c6c(ncnc64)NCCC5)O[C@@H]3COP(=O)(S)O[C@@H]1[C@@H]2O (single isomer, unassigned) [25a] | 6.2 °C | 11.4 °C | 1300 nM | 15 °C | 16 °C |  |  |  | 
4 | O=c1c2ncn([C@@H]3O[C@@H]4COP(=O)(S)O[C@H]5[C@@H](F)[C@H](n6cc7c8c(ncnc86)NCCC7)O[C@@H]5COP(=O)(S)O[C@@H]3[C@@H]4F)c2ncn1CCO (single isomer, unassigned) [44a] | 8.7 °C | 13.4 °C | 210 nM | 18.2 °C | 19.3 °C |  |  |  | 
5 | O=P1(S)OC[C@H]2O[C@@H](n3cc4c5c(ncnc53)NCCC4)[C@H](O)[C@@H]2OP(=O)(S)OC[C@H]2O[C@@H](n3cnc4c(CO)ncnc43)[C@H](O1)[C@@H]2O (single isomer, unassigned) [17b] |  |  | 1000 nM |  |  | 2.2 °C | 7.4 °C | 10.4 °C | 12.6 °C
6 | O=C(CO)NCCn1cnc2c(ncn2[C@@H]2O[C@@H]3COP(=O)(S)O[C@H]4[C@@H](F)[C@H](n5cc6c7c(ncnc75)SCCC6)O[C@@H]4COP(=O)(S)O[C@@H]2[C@@H]3O)c1=O (single isomer, unassigned) [50a] | 6.5 °C | 12.3 °C | 340 nM | 15.6 °C | 13 °C |  |  |  | 
7 | NCCn1cnc2c(ncn2[C@@H]2O[C@@H]3COP(=O)(S)O[C@H]4[C@@H](F)[C@H](n5cc6c7c(ncnc75)NCCC6)O[C@@H]4COP(=O)(S)O[C@@H]2[C@@H]3O)c1=O (single isomer, unassigned) [35b] |  |  | 3400 nM |  |  | 5.8 °C | 10.3 °C | 12.6 °C | 14.2 °C
8 | NCCNc1nc(N)c2ncn([C@@H]3O[C@@H]4COP(=O)(S)O[C@H]5[C@@H](F)[C@H](n6cc7c8c(ncnc86)NCCC7)O[C@@H]5COP(=O)(S)O[C@@H]3[C@@H]4F)c2n1 (single isomer, unassigned) [45a] | 4.4 °C | 8.9 °C | 1200 nM | 10.8 °C | 12.3 °C |  |  |  | 
9 | Nc1nc(CO)nc2c1ncn2[C@@H]1O[C@@H]2COP(=O)(S)O[C@H]3[C@@H](O)[C@H](n4cc5c6c(ncnc64)NCCC5)O[C@@H]3COP(=O)(S)O[C@@H]1[C@@H]2O (single isomer, unassigned) [12a] | 3 °C | 8 °C |  | 9.6 °C | 11.9 °C |  |  |  | 
10 | Nc1nc2c(ncn2[C@@H]2O[C@@H]3COP(=O)(S)O[C@H]4[C@@H](O)[C@H](n5cc6c7c(ncnc75)NCCC6)O[C@@H]4COP(=O)(S)O[C@@H]2[C@@H]3O)c(=O)[nH]1 (single isomer, unassigned) [4a] | 5.2 °C | 11.5 °C | 2100 nM | 17 °C | 17.5 °C |  |  |  | 
11 | O=c1c2ncn([C@@H]3O[C@@H]4COP(=O)(S)O[C@H]5[C@@H](F)[C@H](n6cc7c8c(ncnc86)NCCC7)O[C@@H]5COP(=O)(O)O[C@@H]3[C@@H]4O)c2ncn1CCO (stereo partly drawn) [53a, Disodium (5R,7R,8R,12aR,14R,15R,15aR,16R)-15-fluoro-16-hydroxy-7-[1-(2-hydroxyethyl)-6-oxo-1,6-dihydro-9H-purin-9-yl]-2,10-dioxo-2-sulfide-14-(6,7,8,9-tetrahydro-2H-2,3,5,6-tetraazabenzo[cd]azulen-2-yl)octahydro-2H,10H,12H-5,8-methano-2λ^5,10λ^5-furo[3,2-1][1,3,6,9,11,2,10]pentaoxadiphosphacyclotetradecin-10-olate] | 5.4 °C | 9.6 °C | 6000 nM | 11.6 °C | 14.3 °C |  |  |  | 
12 | NCCNc1nc(N)c2ncn([C@@H]3O[C@@H]4COP(=O)(S)O[C@H]5[C@@H](F)[C@H](n6cc7c8c(ncnc86)NCCC7)O[C@@H]5COP(=O)(S)O[C@@H]3[C@@H]4O)c2n1 (single isomer, unassigned) [37b] |  |  | 4500 nM |  |  | 3.4 °C | 8.1 °C | 9.4 °C | 12.3 °C
13 | O=c1c2ncn([C@@H]3O[C@@H]4COP(=O)(O)O[C@H]5[C@@H](F)[C@H](n6cc7c8c(ncnc86)NCCC7)O[C@@H]5COP(=O)(S)O[C@@H]3[C@@H]4O)c2ncn1CCO (single isomer, unassigned) [52a] | 5.6 °C | 10.9 °C | 310 nM | 13.5 °C | 14.3 °C |  |  |  | 
14 | NCCNc1nc(N)c2ncn([C@@H]3O[C@@H]4COP(=O)(S)O[C@H]5[C@@H](O)[C@H](n6cc7c8c(ncnc86)NCCC7)O[C@@H]5COP(=O)(S)O[C@@H]3[C@@H]4O)c2n1 (single isomer, unassigned) [8a] | 2.8 °C | 7.6 °C | 3100 nM | 10.8 °C | 11.5 °C |  |  |  | 
15 | NCCNc1nc(N)c2ncn([C@@H]3O[C@@H]4COP(=O)(S)O[C@H]5[C@@H](F)[C@H](n6cc7c8c(ncnc86)NCCC7)O[C@@H]5COP(=O)(S)O[C@@H]3[C@@H]4F)c2n1 (single isomer, unassigned) [45b] |  |  | 3100 nM |  |  | 3.1 °C | 7.5 °C | 9.1 °C | 12.1 °C
16 | NCCNc1nc(N)c2ncn([C@@H]3O[C@@H]4COP(=O)(S)O[C@H]5[C@@H](O)[C@H](n6cc7c8c(ncnc86)NCCC7)O[C@@H]5COP(=O)(S)O[C@@H]3[C@@H]4F)c2n1 (single isomer, unassigned) [42a] | 2.8 °C | 6.5 °C | 4200 nM | 9 °C | 11.2 °C |  |  |  | 
17 | NCCn1cnc2c(ncn2[C@@H]2O[C@@H]3COP(=O)(S)O[C@H]4[C@@H](F)[C@H](n5cc6c7c(ncnc75)SCCC6)O[C@@H]4COP(=O)(S)O[C@@H]2[C@@H]3O)c1=O (single isomer, unassigned) [49b] | 6.6 °C | 12.6 °C | 410 nM | 16.1 °C | 19.3 °C |  |  |  | 
18 | O=C(CO)NCCn1cnc2c(ncn2[C@@H]2O[C@@H]3COP(=O)(S)O[C@H]4[C@@H](O)[C@H](n5cc6c7c(ncnc75)NCCC6)O[C@@H]4COP(=O)(S)O[C@@H]2[C@@H]3O)c1=O (single isomer, unassigned) [7a] | 3.9 °C | 8 °C | 3500 nM | 9.7 °C | 11.5 °C |  |  |  | 
19 | Nc1ncnc2c1ncn2[C@@H]1O[C@@H]2COP(=O)(S)O[C@H]3[C@@H](O)[C@H](n4cc5c6c(ncnc64)OCCC5)O[C@@H]3COP(=O)(S)O[C@@H]1[C@@H]2O (single isomer, unassigned) [20a] | 3.7 °C | 7.5 °C |  | 9.7 °C | 12.4 °C |  |  |  | 
